{"source": "patent US6462089B1", "about": "“Method for correcting the vigilance disorders associated with myopathies” (priority 2000, dated 2002)", "key": {"c-fos proto-oncogene": {"system": "c-fos proto-oncogene", "settings": "cats, awakening doses; Lin et al. PNAS 1996; cited from earlier work"}, "[1]": {"system": "patients suffering from Steinert's disease (myotonic dystrophy)", "settings": "cited from earlier work"}, "[2]": {"system": "patients suffering from Steinert's disease", "test": "Karolinska KSS somnolence scale in patients suffering from Steinert's disease", "assay_type": "in vivo, human", "text": "In the second patient of this series, the telling morphotype and a myotony of both hands associated with muscular deficiency existed. Without treatment, diurnal hypersomnia was very pronounced (Epworth scale: 16)."}, "dopamine": {"system": "dopamine", "settings": "within the dose ranges which modify consciousness; cited from earlier work"}, "[3]": {"system": "patients suffering from myotonic dystrophy", "test": "Oral modafinil treatment of a series of patients with myotonic dystrophy and diurnal hypersomnia, subjective effect", "assay_type": "in vivo, human", "settings": "oral doses of between 100 and 400 mg/day; majority of patients"}, "[4]": {"settings": "cited from earlier work"}, "[5]": {"system": "patient suffering from Steinert's disease", "test": "Epworth somnolence scale in a patient suffering from Steinert's disease", "assay_type": "in vivo, human", "settings": "score before treatment 20", "procedure": "By way of example, in a patient suffering from Steinert's disease, which is characterized, inter alia, by a temporal atrophy, ptosis, a myotony associated with muscle weakness, behavioural disorders and somnolence (the start of which went back to 1988) with sleep paralyses, without hypnogogic hallucinations or attacks of cataplexy, a decrease was observed of 18 units on the Epworth somnolence scale (see Johns M. W. Sleep, 1991, 14, 540) after treatment with an oral dose of 100 mg per day of modafinil for six months, between February 1999 (score on the Epworth scale=20) and August 1999 (score on the Epworth scale=2)."}}}
{"smiles": "C[C@H](N)Cc1ccccc1", "note": "[d-amphetamine]", "values": [{"measurement": "expression of c-fos proto-oncogene in the central dopaminergic projection zones (including the cortex)", "setting": "c-fos proto-oncogene", "result": "highly expressed"}]}
{"smiles": "COC(=O)C(c1ccccc1)C1CCCCN1", "note": "(stereo not shown) [methylphenidate]", "values": [{"measurement": "expression of c-fos proto-oncogene in the central dopaminergic projection zones (including the cortex)", "setting": "c-fos proto-oncogene", "result": "highly expressed"}, {"measurement": "level of consciousness", "setting": "[1]; Van der Meché et al. 1986", "result": "improvement in the level of consciousness was observed"}]}
{"smiles": "NC(=O)C[S+]([O-])C(c1ccccc1)c1ccccc1", "note": "(stereo not shown) [modafinil, benzhydrylsulphinylacetamide]", "values": [{"measurement": "personal and professional daily life", "setting": "[2]; patient, dose 200 mg/day", "result": "considerable improvement"}, {"measurement": "somnolence score on the Karolinska KSS scale after treatment", "setting": "[2]; patient, dose 200 mg/day, before: 8", "result": 2}, {"measurement": "diurnal somnolence attacks", "setting": "[2]; second patient, dose 600 mg/day", "result": "partial resolution"}, {"measurement": "somnolence score on the Karolinska scale after treatment", "setting": "[2]; second patient, dose 600 mg/day, before: 8", "result": 4}, {"measurement": "expression of c-fos proto-oncogene in the central dopaminergic projection zones (including the cortex)", "setting": "c-fos proto-oncogene", "result": "not expressed"}, {"measurement": "effect on dopamine", "setting": "dopamine", "result": "no effect"}, {"measurement": "effect of treatment on vigilance disorders and diurnal somnolence", "setting": "[3]", "result": "subjectively effective"}, {"measurement": "generalization of the effects with amphetamine", "setting": "[4]; addictive substance discrimination tests", "result": "very weak"}, {"measurement": "self-administration and preference of place", "setting": "[4]; in vivo", "result": "leads neither to self-administration nor to preference of place"}, {"measurement": "self-administration of cocaine", "setting": "[4]; in vivo", "result": "does not modify"}, {"measurement": "score on the Epworth scale after treatment", "setting": "[5]; oral dose of 100 mg per day for six months (August 1999)", "result": 2}, {"measurement": "decrease on the Epworth somnolence scale", "setting": "[5]; oral dose of 100 mg per day for six months", "result": 18, "unit": "units"}]}
{"smiles": "C#CCN(C)[C@H](C)Cc1ccccc1", "note": "[selegiline]", "values": [{"measurement": "effectiveness on diurnal hypersomnolence", "setting": "[1]; dose of 20 mg/day, Antonini et al. 1997", "result": "ineffective"}]}
